Results as given in patent publication US7705188B2 (Arizona Board of Regents, a body corporate of the State of …, priority 2002, dated 2010).
In brackets after ≈: the same amount, converted by molar mass. Like-named read-outs stand apart in the source and are kept apart here.

Columns and labels:
Staphylococcus aureus = experiment: Antimicrobial broth microdilution, MIC; format: cell-based; settings: read-out: Minimum inhibitory concentration
Source text: (§1) Stilbene production has been correlated with the resistance of grape leaves to fungal infection.

Micrococcus luteus = experiment: Antimicrobial broth microdilution, MIC; format: cell-based; settings: read-out: Minimum inhibitory concentration
Source text: as §1

Escherichla coli = experiment: Antimicrobial broth microdilution, MIC; format: cell-based; settings: read-out: Minimum inhibitory concentration
Source text: as §1

Neisseria gonorrhoeae = experiment: Antimicrobial broth microdilution, MIC; format: cell-based
Source text: as §1

[1] = tested on: Stenotrophomonas maltophilia; experiment: Antimicrobial broth microdilution, MIC; format: cell-based; settings: read-out: Minimum inhibitory concentration
Source text: as §1

Enterobacter cloacae = experiment: Antimicrobial broth microdilution, MIC; format: cell-based; settings: read-out: Minimum inhibitory concentration
Source text: as §1

Enterococcus faecalis = experiment: Antimicrobial broth microdilution, MIC; format: cell-based; settings: for MIC: read-out: Minimum inhibitory concentration
Source text: as §1

Candida albicans = experiment: Antimicrobial broth microdilution, MIC; format: cell-based; settings: read-out: Minimum inhibitory concentration
Source text: as §1

Cryptococcus neoformans = experiment: Antimicrobial broth microdilution, MIC; format: cell-based; settings: read-out: Minimum inhibitory concentration
Source text: as §1

Streptococcus pneumoniae = experiment: Antimicrobial broth microdilution, MIC; format: cell-based; settings: read-out: Minimum inhibitory concentration
Source text: as §1

[2] = tested on: human leukemia HL-60 cell line; settings: cited from earlier work
SF-268 = experiment: Cytotoxicity, CNS SF-268; format: cell-based, human; settings: for GI50: Homo sapiens
tubulin [3] = experiment: Inhibition of [3H]colchicine binding to tubulin; settings: for Inhibition of colchicine binding % Inhibition, 2 μM inhibitor / Inhibition of colchicine binding % Inhibition, 5 μM inhibitor: tubulin 1.0 μM, [3H]colchicine 5.0 μM, 10 min at 37° C.
Method: (§2) Extent of assembly after 20 min at 30° C. was the parameter measured. The colchicine binding assay was performed as earlier reported.^27 The tubulin concentration was 1.0 μM, the [3H] colchicine concentration was 5.0 μM, and the potential inhibitor concentrations were as indicated. Binding of colchicine was measured following a 10 min incubation at 37° C.

BXPC-3 = experiment: Cytotoxicity, pancreas-a BXPC-3; format: cell-based, human
KM201.2 = experiment: Cytotoxicity, colon KM201.2; format: cell-based, human; settings: for GI50: Homo sapiens
DU-145 = experiment: Cytotoxicity, prostate DU-145; format: cell-based, human
NCI-H460 = experiment: Cytotoxicity, lung-NSC NCI-H460; format: cell-based, human; settings: for GI50: Homo sapiens
tubulin [4] = experiment: Inhibition of tubulin polymerization; format: biochemical; settings: for IC50: tubulin 10 μM, extent of assembly after 20 min at 30° C., read-out: Inhibition of tubulin Polymerization IC50 (μM) ± SD; for Inhibition of tubulin assembly, in words: direct comparison with 2a and 2c
Method: as §2

[5] = tested on: murine CaNT adenocarcinoma; settings: six hours after single i.p. injection, 100 mg/kg; cited from earlier work
[6] = tested on: P-388 and human tumor cell lines; experiment: Cytotoxicity, summary over P-388 and human tumor cell lines; format: cell-based
MCF-7 = experiment: Cytotoxicity, breast MCF-7; format: cell-based, human; settings: for GI50: Homo sapiens, MCF7
bacteria and fungi = experiment: Antimicrobial evaluation, summary; format: cell-based
Source text: as §1

[7] = Neisseria gonorrhoeae; read-out: Minimum inhibitory concentration
[8] = NCI-H460, read-out: Lung-NSC NCI-H460 GI50, NCI-H460

Structure (SMILES) | MIC (Staphylococcus aureus) [µg/mL] | MIC (Micrococcus luteus) [µg/mL] | MIC (Escherichla coli; Escherichla coli) [µg/mL] | MIC (Neisseria gonorrhoeae; [7]) [µg/mL] | MIC [1] [µg/mL] | MIC (Enterobacter cloacae) [µg/mL] | MIC (Enterococcus faecalis; first line (r12)) [µg/mL] | MIC (Enterococcus faecalis; second line (r15)) [µg/mL] | MIC (Candida albicans) [µg/mL] | MIC (Cryptococcus neoformans) [µg/mL] | MIC (Streptococcus pneumoniae) [µg/mL] | CNS SF-268 GI50 (SF-268) [µg/mL] | Inhibition of colchicine binding % Inhibition, 2 μM inhibitor (tubulin [3]) [%] | Pancreas-a BXPC-3 GI50 (BXPC-3) [µg/mL] | Prostate DU-145 GI50 (DU-145) [µg/mL] | IC50 (tubulin [4]) [µM] | Inhibition of colchicine binding, in words (tubulin [3]) | Inhibition of colchicine binding % Inhibition, 5 μM inhibitor (tubulin [3]) [%] | Cytotoxicity against cancer cell lines, comparison in words [6] | also measured
Oc1ccc(/C=C/c2cc(O)cc(O)c2)cc1 [Compound 1, 3,4′,5-trihydroxy-trans-stilbene, reference compound] | > 64 | > 64 | > 64 | 16 to 32 (≈ 70.1 to 140 µM) | > 64 | > 64 | > 64 | > 64 | > 64 | > 64 | > 64 |  |  |  |  |  |  |  |  | Activity against Neisseria gonorrhoeae, in words (Neisseria gonorrhoeae; broth microdilution assays): demonstrated; Apoptosis and Bcl-2 expression [2]: induce apoptosis and decrease expression of Bcl-2
COc1ccc(/C=C\c2cc(OC)c(OC)c(OC)c2)cc1O [Compound 2a, combretastatin A-4, reference compound] |  |  |  |  |  |  |  |  |  |  |  | >0.01 | 91 | 0.39 | 0.0008 | 2 ± 0.2 |  |  |  | Colon KM201.2 GI50 (KM201.2; KM201.2): 0.34 µg/mL; Lung-NSC NCI-H460 GI50 (NCI-H460): 0.0006 µg/mL
COc1ccc(/C=C\c2cc(OC)c(OC)c(OC)c2)cc1OP(=O)([O-])[O-].[Na+].[Na+] [Compound 2b, combretastatin A-4 sodium phosphate prodrug] |  |  |  |  |  |  |  |  |  |  |  |  |  |  |  |  |  |  |  | Tumor vascular function shutdown [5]: rapid, irreversible and extensive
COc1ccc(C(=O)c2cc(OC)c(OC)c(OC)c2)cc1O [Compound 2c, phenstatin, reference compound] |  |  |  |  |  |  |  |  |  |  |  |  | 73 ± 1 |  |  | 1.1 ± 0.1 | less potent than combretastatin A-4 (2a) | 85 ± 2 |  | GI50 (SF-268; SF-268, read-out: CNS SF-268 GI50, SF-268): 0.052 µg/mL (≈ 0.163 µM); GI50 (KM201.2; read-out: Colon KM201.2 GI50, KM201.2): 0.04 µg/mL (≈ 0.126 µM); GI50 (NCI-H460; [8]): 0.0057 µg/mL (≈ 0.0179 µM)
COc1ccc(C=Cc2cc(OC)cc(OC)c2)cc1 [Compound 4a, 3,4′,5-trimethoxystilbene] | > 64 | > 64 |  |  | > 64 | > 64 |  |  | > 64 | > 64 | > 64 | 0.0044 | 88 ± 1 | 0.0034 | 0.0054 | 1.8 ± 0.3 | essentially equivalent to 2a | 95 ± 1 |  | Lung-NSC NCI-H460 GI50 (NCI-H460): 0.0028 µg/mL; Inhibition of tubulin assembly, in words (tubulin [4]): more inhibitory than 2a; MIC (Escherichla coli): > 64 µg/mL; MIC (Neisseria gonorrhoeae; Neisseria gonorrhoeae, read-out: Minimum inhibitory concentration): > 64 µg/mL; MIC (Enterococcus faecalis): > 64 µg/mL; Minimum inhibitory concentration (Enterococcus faecalis; second line (r15)): * (no inhibition at 64 μg/ml)
COc1cc(C=Cc2ccc(O)cc2)cc(OC)c1 [Compound 14c, 3,5-dimethoxy-4′-hydroxy-stilbene] | 32 (≈ 125 µM) | 8 (≈ 31.2 µM) | > 64 | 8 (≈ 31.2 µM) | > 64 | > 64 | 32 to 64 (≈ 125 to 250 µM) | > 64 | 64 (≈ 250 µM) | 16 (≈ 62.4 µM) | 16 (≈ 62.4 µM) |  |  |  |  | 29 ± 9 |  |  | comparable to that of resveratrol | GI50 (SF-268; SF-268, SF-268, read-out: CNS SF-268 GI50): 2.2 µg/mL (≈ 8.58 µM); GI50 (BXPC-3; Homo sapiens, BXPC-3, BXPC-3): 12.6 µg/mL (≈ 49.2 µM); GI50 (KM201.2; KM201.2, read-out: Colon KM201.2 GI50): 11.9 µg/mL (≈ 46.4 µM); GI50 (DU-145; Homo sapiens, DU-145, DU-145): 2.3 µg/mL (≈ 8.97 µM); GI50 (NCI-H460; NCI-H460, NCI-H460, read-out: Lung-NSC NCI-H460 GI50): 2.8 µg/mL (≈ 10.9 µM); Fold less active than 4a as inhibitor of tubulin assembly (tubulin [4]; relative to 4a): 16 fold; GI50 (MCF-7): 3 µg/mL (≈ 11.7 µM); Antimicrobial activity, in words (bacteria and fungi): most active of the stilbenes and benzophenones tested
COc1ccc(C=Cc2cc(O)cc(O)c2)cc1 [Compound 14k, 3,5-dihydroxy-4′-methoxy-stilbene] | > 64 | > 64 | > 64 | 16 (≈ 66 µM) | > 64 | > 64 | > 64 | > 64 | > 64 | > 64 | > 64 | 15.6 |  | 14.1 | 10.6 |  |  |  | comparable to that of resveratrol | Colon KM201.2 GI50 (KM201.2; KM201.2): 17.7 µg/mL; GI50 (NCI-H460; [8]): 6.4 µg/mL (≈ 26.4 µM); Breast MCF-7 GI50 (MCF-7; MCF-7): 12.7 µg/mL
COc1ccc(C(=O)c2cc(OC)cc(OC)c2)cc1 [Compound 16a, 3,4′,5-trimethoxybenzophenone] | > 64 | > 64 | > 64 | 32 (≈ 118 µM) | > 64 | > 64 | > 64 | > 64 | > 64 | > 64 | > 64 |  | 47 ± 5 |  |  | 2.6 ± 0.3 | least activity in both assays | 69 ± 0.3 | superior in activity to resveratrol (1) | Fold less active (cytotoxicity) than compound 4a ([6]; relative to 4a): 10-100 fold; Inhibition of tubulin assembly, in words (tubulin [4]): somewhat less potent than 2c; GI50 (MCF-7): 21.7 µg/mL (≈ 79.7 µM); melting point: 90.3 to 91.6 °C
